According to ChEMBL document CHEMBL4811299, “Discovery of a novel class of heteroaryl-pyrrolidinones as positive allosteric modulators of the muscarinic acetylcholine receptor M1” (Bioorg Med Chem Lett, 2021):

How the values were obtained:
[1] = molecular target: T1, Muscarinic acetylcholine receptor M1 (Homo sapiens, UniProt P11229); assay: Positive allosteric modulation of human muscarinic acetylcholine M1 receptor expressed in CHO cells in presence of acetylcholine at EC20 concentration by calcium mobilization assay; assay type: functional, cell-based
T1 sequence (P11229 whole entry): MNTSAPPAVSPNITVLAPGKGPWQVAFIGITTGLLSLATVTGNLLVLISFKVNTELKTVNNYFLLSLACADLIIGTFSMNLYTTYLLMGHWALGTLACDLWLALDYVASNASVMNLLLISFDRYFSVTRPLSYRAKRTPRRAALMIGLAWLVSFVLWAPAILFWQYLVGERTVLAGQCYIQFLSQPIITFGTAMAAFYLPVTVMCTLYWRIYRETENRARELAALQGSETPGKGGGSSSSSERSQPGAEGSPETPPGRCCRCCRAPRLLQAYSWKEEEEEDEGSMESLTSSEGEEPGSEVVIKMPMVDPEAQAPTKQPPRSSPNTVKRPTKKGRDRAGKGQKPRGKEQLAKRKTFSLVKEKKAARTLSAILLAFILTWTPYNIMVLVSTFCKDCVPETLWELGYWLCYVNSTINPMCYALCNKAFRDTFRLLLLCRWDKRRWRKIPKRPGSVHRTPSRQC

[2] = molecular target: T2, Muscarinic acetylcholine receptor M1 (Homo sapiens) (UniProt P11229); assay: Positive allosteric modulation of human muscarinic acetylcholine M1 receptor expressed in CHO cells in presence of acetylcholine at EC20 concentration by calcium mobilization assay relative to acetylcholine; assay type: functional, cell-based; conditions: time 3.5 min
T2 sequence (whole entry): T1 sequence (P11229 whole entry)

[3] = Protein binding in rat plasma assessed as unbound fraction measured after 4 hrs by equilibrium dialysis assay; assay type: ADME, cell-free
[4] = molecular target: T3, Muscarinic acetylcholine receptor M2 (Homo sapiens, UniProt P08172); assay: Positive allosteric modulation of human muscarinic acetylcholine M2/Gqi5 receptor expressed in CHO cells in presence of acetylcholine at EC20 concentration by calcium mobilization assay; assay type: functional, cell-based
T3 sequence (P08172 whole entry): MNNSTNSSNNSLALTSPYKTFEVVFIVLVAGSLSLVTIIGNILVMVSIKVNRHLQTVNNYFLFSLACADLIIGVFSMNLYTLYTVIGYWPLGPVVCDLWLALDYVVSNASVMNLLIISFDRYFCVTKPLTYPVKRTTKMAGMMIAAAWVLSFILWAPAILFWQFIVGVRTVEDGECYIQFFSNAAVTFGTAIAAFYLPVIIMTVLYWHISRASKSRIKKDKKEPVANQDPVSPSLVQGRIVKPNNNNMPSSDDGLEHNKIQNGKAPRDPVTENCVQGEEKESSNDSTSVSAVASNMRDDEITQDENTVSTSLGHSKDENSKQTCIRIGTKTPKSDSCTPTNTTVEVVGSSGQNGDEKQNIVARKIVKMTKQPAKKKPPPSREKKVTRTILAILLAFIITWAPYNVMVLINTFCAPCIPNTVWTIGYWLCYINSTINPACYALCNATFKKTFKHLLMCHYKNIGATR

[5] = molecular target: T4, Muscarinic acetylcholine receptor M5 (Homo sapiens, UniProt P08912); assay: Positive allosteric modulation of human muscarinic acetylcholine M5 receptor expressed in CHO cells in presence of acetylcholine at EC20 concentration by calcium mobilization assay; assay type: functional, cell-based
T4 sequence (P08912 whole entry): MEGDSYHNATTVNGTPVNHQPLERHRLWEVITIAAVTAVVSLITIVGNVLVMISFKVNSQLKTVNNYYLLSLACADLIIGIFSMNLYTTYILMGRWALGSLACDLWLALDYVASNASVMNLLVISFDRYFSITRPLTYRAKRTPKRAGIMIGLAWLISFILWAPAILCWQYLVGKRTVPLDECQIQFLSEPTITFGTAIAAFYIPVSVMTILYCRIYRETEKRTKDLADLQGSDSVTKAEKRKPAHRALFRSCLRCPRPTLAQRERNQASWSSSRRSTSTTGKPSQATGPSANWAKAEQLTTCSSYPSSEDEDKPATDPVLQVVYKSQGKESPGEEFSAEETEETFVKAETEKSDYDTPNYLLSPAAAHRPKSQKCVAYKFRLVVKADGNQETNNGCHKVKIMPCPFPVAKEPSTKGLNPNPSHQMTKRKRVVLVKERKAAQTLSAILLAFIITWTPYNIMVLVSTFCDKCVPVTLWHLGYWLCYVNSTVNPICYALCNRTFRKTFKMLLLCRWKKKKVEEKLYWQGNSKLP

[6] = Protein binding in rat brain assessed as unbound fraction measured after 4 hrs by equilibrium dialysis assay; assay type: ADME, tissue-based
[7] = molecular target: Muscarinic acetylcholine receptor M3 (Homo sapiens, UniProt P20309); assay: Positive allosteric modulation of human muscarinic acetylcholine M3 receptor expressed in CHO cells in presence of acetylcholine at EC20 concentration by calcium mobilization assay; assay type: functional, cell-based
Chain of Muscarinic acetylcholine receptor M3 (P20309 whole entry): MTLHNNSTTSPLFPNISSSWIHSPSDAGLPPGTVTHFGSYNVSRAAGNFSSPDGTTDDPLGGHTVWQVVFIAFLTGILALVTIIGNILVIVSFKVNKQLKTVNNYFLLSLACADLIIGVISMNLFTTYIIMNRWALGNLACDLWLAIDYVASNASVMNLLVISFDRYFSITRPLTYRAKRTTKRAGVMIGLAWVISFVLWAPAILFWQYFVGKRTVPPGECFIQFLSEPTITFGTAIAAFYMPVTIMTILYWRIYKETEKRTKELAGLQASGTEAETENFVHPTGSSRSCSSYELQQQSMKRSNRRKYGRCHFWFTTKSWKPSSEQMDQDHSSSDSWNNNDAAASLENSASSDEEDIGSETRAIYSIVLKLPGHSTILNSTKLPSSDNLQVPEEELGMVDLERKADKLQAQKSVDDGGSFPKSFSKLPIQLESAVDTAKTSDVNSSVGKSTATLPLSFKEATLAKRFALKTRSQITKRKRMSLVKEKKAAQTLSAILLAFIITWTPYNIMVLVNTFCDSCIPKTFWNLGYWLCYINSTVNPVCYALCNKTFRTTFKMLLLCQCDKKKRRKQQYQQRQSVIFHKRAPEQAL

[8] = Unbound brain-to-plasma concentration ratio of the compound in rat at 0.20 mg/kg, iv administered as cassette dose measured at 0.25 hrs; assay type: ADME, organism-based; conditions: 0.2 mg/kg
[9] = Brain to plasma partition coefficient, Kp of the compound in rat at 0.20 mg/kg, iv administered as cassette dose measured at 0.25 hrs; assay type: ADME, organism-based; conditions: 0.2 mg/kg
[10] = Protein binding in human plasma assessed as unbound fraction measured after 4 hrs by equilibrium dialysis assay; assay type: ADME, cell-free
[11] = filed as positive allosteric modulator

SMILES | EC50 [1] | Emax [2, 11] | further results
Cn1cc2cccc(-c3cc(F)c(CN4Cc5cnn(CC6CCCO6)c5C4=O)c(F)c3)c2n1 (configuration not stated) | – | 66% | –
COCCn1ncc2c1C(=O)N(Cc1c(F)cc(-c3cccc4nn(C)cc34)cc1F)C2 | 3.93 µM | 84% | –
Cn1cc2cc(-c3cc(F)c(CN4Cc5occc5C4=O)c(F)c3)ccc2n1 | – | 45% | –
Cn1cnc2ccc(-c3cc(F)c(CN4Cc5sccc5C4=O)c(F)c3)cc21 | – | 60% | –
Cn1cc2c(-c3cc(F)c(CN4Cc5cn(CCN6CCCC6)nc5C4=O)c(F)c3)cccc2n1 | – | 57% | –
Cn1cc2c(-c3cc(F)c(CN4Cc5cnn(CCN6CCCC6)c5C4=O)c(F)c3)cccc2n1 | 0.739 µM | 87% | –
Cn1cc2cc(-c3ccc(CN4Cc5ncsc5C4=O)c(F)c3)ccc2n1 | 2 µM | 60% | Fu [3]: 0.04; EC50 [4]: > 10 µM; EC50 [5]: > 10 µM; Fu [6]: 0.042; EC50 [7]: > 10 µM; K(p,uu,brain) [8]: 2.2; Kp [9]: 2.1; Fu [10]: 0.05
Cn1cc2c(-c3cc(F)c(CN4Cc5ccn(CCN6CCCC6)c5C4=O)c(F)c3)cccc2n1 | – | 56% | –
Cn1cc(-c2ccc(CN3Cc4ccsc4C3=O)c(F)c2)cn1 | – | 67% | –
Cn1cc2c(-c3cc(F)c(CN4Cc5cnn(CCO)c5C4=O)c(F)c3)cccc2n1 | 1.51 µM | 84% | –
Cc1cc(-c2cc(F)c(CN3Cc4cnn(CC5CCCO5)c4C3=O)c(F)c2)ccn1 (configuration not stated) | – | 65% | –
Cn1cc2c(-c3cc(F)c(CN4Cc5ccn(CC6CCCO6)c5C4=O)c(F)c3)cccc2n1 (configuration not stated) | – | 58% | –
Cn1cc2c(-c3cc(F)c(CN4Cc5cnn(CC6CCCO6)c5C4=O)c(F)c3)cccc2n1 (configuration not stated) | 1.12 µM | 85% | Fu [3]: 0.027; EC50 [4]: > 10 µM; EC50 [5]: > 10 µM; Fu [6]: 0.019; EC50 [7]: > 10 µM; Fu [10]: 0.025

Second part, led by results:

EC50 [1] | Emax [2, 11] | SMILES | further results
8 µM | – | O=C1c2scnc2CN1Cc1c(F)cc(-c2ccc3ncccc3c2)cc1F | Emax [2]: 30%
– | 40% | Cn1cc2cc(-c3cc(F)c(CN4Cc5ccsc5C4=O)c(F)c3)ccc2n1 | –
– | 51% | Cn1cc2cc(-c3ccc(CN4Cc5sccc5C4=O)c(F)c3)ccc2n1 | –
2.16 µM | 66% | Cn1cc2c(-c3cc(F)c(CN4Cc5ccsc5C4=O)c(F)c3)cccc2n1 | –
> 10 µM | – | Cc1[nH]cc2c1C(=O)N(Cc1c(F)cc(-c3cccc4nn(C)cc34)cc1F)C2 | –
> 10 µM | – | Cn1cc2c(-c3cc(F)c(CN4Cc5nc[nH]c5C4=O)c(F)c3)cccc2n1 | –
– | 67% | Cn1cc2c(-c3ccc(CN4Cc5sccc5C4=O)c(F)c3)cccc2n1 | –
> 10 µM | – | Cn1cc2c(-c3cc(F)c(CN4Cc5ocnc5C4=O)c(F)c3)cccc2n1 | –
– | 77% | Cc1nn(C)cc1-c1cc(F)c(CN2Cc3cnn(CC4CCCO4)c3C2=O)c(F)c1 (configuration not stated) | –
– | 59% | Cn1cc2cc(-c3cc(F)c(CN4Cc5sccc5C4=O)c(F)c3)ccc2n1 | –
1.92 µM | 75% | Cn1cc2c(-c3cc(F)c(CN4Cc5sccc5C4=O)c(F)c3)cccc2n1 | –
1.66 µM | 79% | Cn1cc2cc(-c3cc(F)c(CN4Cc5cnn(CC6CCCO6)c5C4=O)c(F)c3)ccc2n1 (configuration not stated) | –
3.54 µM | 61% | Cn1cc2c(-c3cc(F)c(CN4Cc5cn(CC6CCCO6)nc5C4=O)c(F)c3)cccc2n1 (configuration not stated) | –
– | 67% | Cn1cc2c(-c3cc(F)c(CN4Cc5ccn(CCCO)c5C4=O)c(F)c3)cccc2n1 | –
> 10 µM | – | Cn1cc2c(-c3cc(F)c(CN4Cc5ncoc5C4=O)c(F)c3)cccc2n1 | –
